According to US20150218599A1, “METHODS FOR PRODUCTION OF ALCOHOLS FROM CARBOXYLIC ACIDS VIA FERMENTATION” (Cornell University, priority 2012, published 2015):

Key:
C. ljungdahlii ERI-2 [1] = experiment: Carboxylic acid reduction in batch cultures with constant syngas supply; format: cell-based, Clostridium ljungdahlii; conditions: 15 mM carboxylic acid; for max. opt. density at 600 nm: triplicate
Experimental: (§1) All chemicals were purchased from Sigma-Aldrich, St. Louis, Mo., unless stated otherwise. Bacterial strain and growth conditions. Most experiments were conducted with C. ljungdahlii ERI-2 (ATTC 55380), which has been used successfully for syngas to ethanol fermentation. Some experiments were repeated with C. ragsdalei P11 (ATTC BAA-622). Bacteria were grown anaerobically at 35° C. in medium designed for efficient syngas fermentation. This medium is mostly based on ATCC medium 1754 but contains higher concentrations of the macronutrient elements. The yeast extract concentration was 0.5 g/L or 0.0 g/L as indicated for each experiment; the concentration of MES (2-(N-morpholino)ethanesulfonic acid) was 150 mM; carboxylic acids (propionic, n-butyric, isobutyric, n-valeric or n-caproic acid) were added to final concentrations of 15 mM before adjustment of the pH to 5.5. The syngas atmosphere was a synthetic blend of 60% [vol/vol]carbon monoxide, 35% hydrogen, and 5% carbon dioxide (Airgas East, Ithaca, N.Y.). Precultures of C. ljungdahlii or C. ragsdalei were grown in 250 ml serum bottles containing 20 ml medium with 0.5 g/L or 0.0 g/L yeast extract (the latter for inoculation of experiments with no yeast extract) and syngas in the headspace at a pressure of 28 psi with finite amounts of syngas. Precultures were maintained in an active state by weekly transfer of 2% into a fresh serum bottle with a headspace of finite syngas.
Experimental setup. The experiments to determine the ability of C. ljungdahlii to reduce propionic acid, n-butyric acid, n-valeric acid, n-caproic acid, or isobutyric acid (2-methyl propionic acid) to the corresponding alcohols were performed in triplicate in 250 ml rubber-stoppered Pyrex glass bottles (Fisher Scientific, Pittsburgh, Pa.), which were used as batch systems in regards to the growth medium, but with constant syngas supply (FIG. 1A). Three stainless steel needles of different length (21 gauge, Becton Dickinson Franklin Lakes, N.J., and ColeParmer, Vernon Hills, Ill.) were punched through each rubber stopper as gas supply, vent, and sample ports. The reactors were filled with 220 mL medium containing 0.5 g/L yeast extract and one of each carboxylic acids at a concentration of 15 mM, autoclaved, and then equipped with fermentation airlocks (www.winemakingsuperstore.com) filled with 5% sulfuric acid to prevent contamination by other microbes or oxygen, and placed in a temperature-controlled recirculating water bath for mechanical agitation using a 15 multi-position IKA magnetic stirrer (Cole-Parmer Vernon Hills, Ill. 60061 USA). Artificial syngas was constantly supplied to up to 12 reactors at a time, at a flow rate of 5 mL/min to each reactor with a gassing station with multiple outlets and low-flow brass needle valves (McMaster-Carr, Aurora, Ohio), sterile Masterflex viton tubing (Cole Parmer, Vernon Hills, Ill.), 0.22-μm sterile filters (Fisher Scientific), and sterile needles through the rubber stopper (size 6.5, VWR, Radnor, Pa.) connected to gas diffusion stones (Fisher Scientific). All reactors were inoculated with 2% exponentially growing pre-cultures. The fermentation was operated for ca. 400 h.
(§2) Analytical procedures. Cell dry weight concentration in the cultures was determined through measurement of the optical density with a Milton Roy Spectronic 1201 spectrophotometer at a wavelength of 600 nm after determining a correlation coefficient of 242 mg dry weight/(L*OD600nm). The carbon content was calculated using the universal proportion of elements in microbial biomass (C5H7O2N). A gas chromatography system (HP 5890, Hewlett Packard, Palo Alto, Calif.), which was equipped with a 7673 autoinjector and flame ionization detector, was used for the quantification of carboxylic acids and alcohols. GC columns were purchased from Sigma-Aldrich, Inc., St. Louis, Mo. The flow rates of hydrogen, air, and helium were 35, 380, and 30 mL/min. […]

C. ljungdahlii ERI-2 [2] = experiment: Batch syngas fermentation in 1 L bottles with a finite amount of syngas (stoichiometry); format: cell-based, Clostridium ljungdahlii; conditions: 15 mM n-butyric acid, 25 to 115 h
Experimental: The stoichiometry of substrates and products of syngas fermentation with 0 mM n-butyric acid and 15 mM n-butyric acid was determined in 1 L rubber-stoppered Pyrex glass bottles filled with […] medium without yeast extract and 1051.6 ml syngas headspace at a pressure of 28 psi. […] Here, yeast extract was omitted from the growth medium to minimize the interference of organic compounds (amino acids) in the fermentation. Two needles, each connected to a three-way valve, were used to take gas or liquid samples from the reactor. Gas pressure was measured using gauge pressure transducers (Model PX26, Omega Engineering, Inc., Stamford, Conn.) attached to hypodermic needles inserted through a rubber septum on the three-way valve of the sampling port. […] Cell density (OD600nm), pH, headspace gas pressure, concentrations of carbon monoxide, hydrogen, and carbon dioxide in the headspace, and concentrations of carboxylic acids and solvents in the culture medium were monitored daily. […]
Analytical procedures. Cell dry weight concentration in the cultures was determined through measurement of the optical density with a Milton Roy Spectronic 1201 spectrophotometer at a wavelength of 600 nm after determining a correlation coefficient of 242 mg dry weight/(L*OD600nm). The carbon content was calculated using the universal proportion of elements in microbial biomass (C5H7O2N). […]

C. ragsdalei P11 = experiment: Carboxylic acid reduction in batch cultures with constant syngas supply; format: cell-based, Clostridium ragsdalei; conditions: 15 mM carboxylic acid; for max. opt. density at 600 nm: triplicate
Experimental: as §1
Experimental setup. The experiments to determine the ability of C. ljungdahlii to reduce propionic acid, n-butyric acid, n-valeric acid, n-caproic acid, or isobutyric acid (2-methyl propionic acid) to the corresponding alcohols were performed in triplicate in 250 ml rubber-stoppered Pyrex glass bottles (Fisher Scientific, Pittsburgh, Pa.), which were used as batch systems in regards to the growth medium, but with constant syngas supply (FIG. 1A). Three stainless steel needles of different length (21 gauge, Becton Dickinson Franklin Lakes, N.J., and ColeParmer, Vernon Hills, Ill.) were punched through each rubber stopper as gas supply, vent, and sample ports. […]
as §2, with “alcohols.” for “alcohols. GC columns were purchased from Sigma-Aldrich, Inc., St. Louis, Mo. The flow rates of hydrogen, air, and helium were 35, 380, and 30 mL/min.”

SMILES	growth rate (C. ljungdahlii ERI-2 [1])	max. opt. density at 600 nm (C. ljungdahlii ERI-2 [1])	cell mass DW (C. ljungdahlii ERI-2 [2])	maximum OD600 (C. ljungdahlii ERI-2 [2])	growth rate (C. ragsdalei P11)	max. opt. density at 600 nm (C. ragsdalei P11)
CC(C)C(=O)O [isobutyric acid]	0.077 ± 0.008 h⁻¹	2.50 ± 0.31				
CCCC(=O)O [n-butyric acid]	0.094 ± 0.004 h⁻¹	2.71 ± 0.39	16.65 ± 2.99 mg	1.34 ± 0.21	0.120 ± 0.004 h⁻¹	0.98 ± 0.05
CCCCCC(=O)O [n-caproic acid]	0.049 ± 0.003 h⁻¹	1.47 ± 0.17				
CCCCC(=O)O [n-valeric acid]	0.077 ± 0.007 h⁻¹	2.01 ± 0.04				
CCC(=O)O [propionic acid]	0.084 ± 0.012 h⁻¹	2.69 ± 0.19			0.093 ± 0.024 h⁻¹	0.53 ± 0.14
